The record followed here is patent US11992535B2, “Compounds and probes for imaging huntingtin protein” (CHDI Foundation, Inc., priority 2019, dated 2024).

Read-outs that look alike come from different tables or passages of the source.

The test has as its target aggregated MBP-HTT(1-89)Q46-His(6×) (Exonl-Q46) protein (Q46 protein aggregates) (Homo sapiens (Human), UniProt P42858, INS38QQQQQQQQQQQQQQQQQQQQQQQQQ). The experiment in a line: Q46 Radioligand Binding Assay. The note with it: read-out: Q46_RBA EC50_. The protocol: Q46 Radioligand Binding Assay
For radioligand binding assays (RBA) MBP-HTT(1-89)Q46-His(6×) (“Exonl-Q46”) protein was generated based on a previous publication (Scherzinger et al. Cell, Vol. 90, 549-558, Aug. 8, 1997). For experiments 30 μM MBP-Exonl-Q46 was incubated with 150 μg/mL thrombin in assay buffer (150 mM NaCl, 50 mM Tris pH 8.0) and 2 mM CaCl2 for 16 hours at 37° C. Aggregated Exonl-Q46 was pelleted by centrifugation for 5 minutes at 13,000 rpm in a bench top centrifuge and re-dissolved in the same volume of assay buffer. Test compounds were prepared by titration in DMSO at 11 concentrations from 63 μM to 2 nM. For the RBA, Q46 protein aggregates and test compounds were pre-incubated in assay buffer for 20 minutes at room temperature, in 100 μL/well in a 96-well plate (pp, round bottom). Then, ligand was added in 50 μL/well and incubated for 60 minutes at 37° C. Final assay concentrations were 1 μM to 30 μM test compound, 1 μM Exonl-Q46 protein (equivalent monomer concentration) and 0.3 nM ligand [^3H3-methyl]-5-((5-methoxypyridin-2-yl)methoxy)-2-(pyrazin-2-yl)benzo[d]oxazole. Samples were transferred onto GF/B filter plates and washed 2× with 200 μL PBS using a Filtermate Harvester. After drying filter plates for 1 hour at 55° C., the back of the plates were sealed with foil and 30 μL/well scintillation fluid (Packard MicroScint 40) added, incubated for 15 minutes in the dark and counted in a MicroBeta reader. For analysis, replicate data from independent assay plates were normalized towards 0% and 100% inhibition using control wells of vehicle (0% inhibition) and 1 μM unlabelled [^3H3-methyl]-5-((5-methoxypyridin-2-yl)methoxy)-2-(pyrazin-2-yl)benzo[d]oxazole (100% inhibition). IC50 values were determined with a sigmoidal inhibition model with four variables (top, bottom, slope, IC50) in a global fit using the normalized replicate data.

[1] abbreviates: displacement of 0.3 nM [3H3-methyl]-5-((5-methoxypyridin-2-yl)methoxy)-2-(pyrazin-2-yl)benzo[d]oxazole from 1 μM Exonl-Q46 aggregates, method calls the values IC50.
Setting [2] is: same radioligand displacement on Exonl-Q46 aggregates.

Sequence of aggregated MBP-HTT(1-89)Q46-His(6×) (Exonl-Q46) protein (Q46 protein aggregates) (P42858 other isoform, or with tags, fused parts or gaps, stated change not applied): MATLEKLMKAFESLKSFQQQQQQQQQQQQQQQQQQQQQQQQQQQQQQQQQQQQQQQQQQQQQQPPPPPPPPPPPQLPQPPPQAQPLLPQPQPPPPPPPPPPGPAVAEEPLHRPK

A word on the EC50: it is the concentration needed to bring the measured effect to its halfway point. Take `COc1ccc(COc2ccc3c(n2)CN(C(=O)c2ccc(OC)nc2)CC3)nc1` [Example 26, 2-[(5-Methoxypyridin-2-yl)methoxy]-7-(6-methoxypyridine-3-carbonyl)-5,6,7,8-tetrahydro-1,7-naphthyridine]: the EC50 is 39.3 nM under setting [1] and less than 100 nM under setting [2].

As for `COc1ccc(COc2ccc3c(c2)CN(C(=O)c2ccc(=O)[nH]c2)CC3)nc1` [Example 39, 5-(7-((5-Methoxypyridin-2-yl)methoxy)-1,2,3,4-tetrahydroisoquinoline-2-carbonyl)pyridin-2(1H)-one], the EC50 is 12 nM under setting [1] and less than 100 nM under setting [2].

As to `COc1ccc(COc2cnc3c(c2)CN(C(=O)c2ccc(OCCF)nc2)CC3)nc1` [Example 24.3], the concentration for a half-maximal effect (EC50) runs as follows: under setting [1], 4.45 nM; under setting [2], less than 100 nM.

In the case of `COc1ccc(COc2ccc3c(c2)CN(C(=O)c2ccc(OC)nc2)CC3)nc1` [Example 1, 7-[(5-Methoxypyridin-2-yl)methoxy]-2-(6-methoxypyridine-3-carbonyl)-1,2,3,4-tetrahydroisoquinoline], the EC50 under setting [1] was 1.24 nM and the EC50 under setting [2] is less than 100 nM.

As for `COCCn1cc(C(=O)N2CCc3ncc(OCc4ccc(OC)cn4)cc3C2)ccc1=O` [Example 24.4], the EC50 reads like this: under setting [1], 43 nM; under setting [2], less than 100 nM.

For the compound `COc1ccc(COc2ccc3c(c2)CN(C(=O)c2cnc(OC)nc2)CC3)nc1` [Example 1.22], the EC50 is, setting by setting: under setting [1], 2.1 nM; under setting [2], less than 100 nM.

Take `COc1ccc(COc2ccc3c(c2)CN(C(=O)c2cn(C)c(=O)cn2)CC3)nc1` [Example 15, 5-{7-[(5-Methoxypyridin-2-yl)methoxy]-1,2,3,4-tetrahydroisoquinoline-2-carbonyl}-1-methyl-1,2-dihydropyrazin-2-one]: the EC50 is, setting by setting: under setting [1], 56.8 nM; under setting [2], less than 100 nM.

Turning to `COc1ccc(COc2ccc3c(c2)CN(c2ccc(=O)n(C)c2)CC3)nc1` [Example 29.1], the EC50 runs as follows: under setting [1], 86 nM; under setting [2], less than 100 nM.

As for `COc1ccc(COc2ccc3c(c2)CN(C(=O)Nc2ccc(OC)nc2)CC3)nc1` [Example 4.2], the half-maximal effective concentration (EC50) by setting is: under setting [1], 6.92 nM; under setting [2], less than 100 nM.

As to `COc1ccc(COc2ccc3c(c2)CN(C(=O)c2cnc(OC)cn2)CC3)nc1` [Example 1.8], the EC50 under setting [1] amounted to 1.2 nM and the EC50 under setting [2] is less than 100 nM.

On to `COc1ccc(COc2ccc3c(c2)CCN(C(=O)c2ccc(OC)nn2)C3)nc1` [Example 1.2], for which the EC50 is 48.9 nM under setting [1] and less than 100 nM under setting [2].

In the case of `COc1ccc(COc2cc3c(cn2)CCN(C(=O)c2ccc(OC)nc2)C3)nc1` [Example 16, 7-[(5-Methoxypyridin-2-yl)methoxy]-2-(6-methoxypyridine-3-carbonyl)-1,2,3,4-tetrahydro-2,6-naphthyridine], the EC50 reads like this: under setting [1], 39.5 nM; under setting [2], less than 100 nM.

In the case of `COc1ccc(NC(=O)N2CCc3ccccc3C2)cn1` [Example 4.1], the EC50 runs as follows: under setting [1], 1000 nM; under setting [2], more than 500 nM.
